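Growth conditions: 96-well plates. Treatment: test compound, 48 hours, 5 concentrations. Analysis: linear interpolation between bracketing concentrations; unreached endpoints set to highest concentration. GI50 is the concentration that inhibits growth by half. TGI is the concentration that stops growth completely.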
Experiments:
Experiment in all cases: inhibition of tumour cell growth, NCI panel, 48 h
CCRF-CEM leukemia = tested on: CCRF-CEM leukemia
MALME-3M melanoma = tested on: MALME-3M melanoma
HOP-92 NSCLC = tested on: HOP-92 NSCLC
DU-145 prostate = tested on: DU-145 prostate
CAKI-1 renal = tested on: CAKI-1 renal
TK-10 renal = tested on: TK-10 renal
NCI-H226 lung = tested on: NCI-H226 lung
OVCAR-5 ovarian = tested on: OVCAR-5 ovarian
BT-549 breast = tested on: BT-549 breast
K-562 leukemia = tested on: K-562 leukemia

## Cc1ccc(OCC2OC(n3cnc4nc(N)nc(Cl)c43)CC2Oc2ccc(C)cc2)cc1 (stereo not drawn)
CCRF-CEM leukemia
  TGI: > 100 µM
MALME-3M melanoma
  TGI: 69.2 µM
HOP-92 NSCLC
  TGI: 70 µM
DU-145 prostate
  TGI: 35.9 µM
CAKI-1 renal
  TGI: 23.6 µM
TK-10 renal
  TGI: > 100 µM
NCI-H226 lung
  TGI: 47.5 µM
OVCAR-5 ovarian
  TGI: 39.7 µM
BT-549 breast
  TGI: > 100 µM

## N#CC1(C#N)NC(c2cccs2)C(C#N)(C#N)NC1c1cccs1 (stereo not drawn)
K-562 leukemia
  TGI: 56.3 µM
CCRF-CEM leukemia
  TGI: 64.3 µM
MALME-3M melanoma
  TGI: > 100 µM
HOP-92 NSCLC
  TGI: 78.7 µM
DU-145 prostate
  TGI: > 100 µM
CAKI-1 renal
  TGI: > 100 µM
TK-10 renal
  TGI: > 100 µM
NCI-H226 lung
  TGI: > 100 µM
OVCAR-5 ovarian
  TGI: 92.6 µM
BT-549 breast
  TGI: 57.4 µM

## O=c1cc(N2CCCC2)[nH]c(=O)n1Cc1ccccc1
K-562 leukemia
  TGI: > 100 µM
CCRF-CEM leukemia
  TGI: > 100 µM
MALME-3M melanoma
  TGI: > 100 µM
HOP-92 NSCLC
  TGI: > 100 µM
DU-145 prostate
  TGI: > 100 µM
CAKI-1 renal
  TGI: > 100 µM
TK-10 renal
  TGI: > 100 µM
NCI-H226 lung
  TGI: > 100 µM
OVCAR-5 ovarian
  TGI: > 100 µM
BT-549 breast
  TGI: > 100 µM

## O=C1C(Cl)=C(OCCCl)C(=O)c2c(O)ccc(O)c21
K-562 leukemia
  TGI: 1.08 µM
CCRF-CEM leukemia
  TGI: 0.381 µM
MALME-3M melanoma
  TGI: 7.53 µM
HOP-92 NSCLC
  TGI: 3.12 µM
DU-145 prostate
  TGI: 32.2 µM
CAKI-1 renal
  TGI: 3.93 µM
TK-10 renal
  TGI: 7.76 µM
NCI-H226 lung
  TGI: 30.7 µM
OVCAR-5 ovarian
  TGI: 31.6 µM
BT-549 breast
  TGI: 26.9 µM

## COc1ccc(CC(N)c2ccc(OC)cc2)cc1 (stereo not drawn)
K-562 leukemia
  TGI: > 100 µM
CCRF-CEM leukemia
  TGI: > 100 µM
MALME-3M melanoma
  TGI: > 100 µM
HOP-92 NSCLC
  TGI: > 100 µM
DU-145 prostate
  TGI: > 100 µM
CAKI-1 renal
  TGI: > 100 µM
TK-10 renal
  TGI: > 100 µM
NCI-H226 lung
  TGI: > 100 µM
OVCAR-5 ovarian
  TGI: > 100 µM
BT-549 breast
  TGI: > 100 µM

## O=C(N/N=C/C=C/c1ccc([N+](=O)[O-])o1)c1cc2ccccc2cc1O
K-562 leukemia
  GI50: 0.632 µM
  TGI: 9.53 µM
MALME-3M melanoma
  GI50: 1.5 µM
  TGI: 3.4 µM
HOP-92 NSCLC
  GI50: 2.08 µM
  TGI: 5.52 µM
DU-145 prostate
  GI50: 2.26 µM
  TGI: 8.67 µM
CAKI-1 renal
  GI50: 0.933 µM
  TGI: 5.02 µM
TK-10 renal
  GI50: 2.44 µM
  TGI: 8.13 µM
NCI-H226 lung
  GI50: 1.64 µM
  TGI: 4.78 µM
OVCAR-5 ovarian
  GI50: 3.35 µM
  TGI: 10.7 µM
BT-549 breast
  GI50: 1.3 µM
  TGI: 3.02 µM

## NS(=O)(=O)c1ccc(/C=C/c2ccc(F)cc2)cc1
K-562 leukemia
  GI50: 14.9 µM
  TGI: > 100 µM
CCRF-CEM leukemia
  GI50: 62 µM
  TGI: > 100 µM
MALME-3M melanoma
  TGI: > 100 µM
HOP-92 NSCLC
  GI50: 33.2 µM
  TGI: 77.6 µM
DU-145 prostate
  TGI: > 100 µM
CAKI-1 renal
  GI50: 36.3 µM
  TGI: > 100 µM
TK-10 renal
  TGI: > 100 µM
NCI-H226 lung
  GI50: 7.97 µM
  TGI: 27 µM
OVCAR-5 ovarian
  TGI: > 100 µM
BT-549 breast
  GI50: 0.205 µM
  TGI: 4.92 µM

## CC1C(=O)N(c2ccccc2)NC12CCCc1ccccc12 (stereo not drawn)
K-562 leukemia
  TGI: > 100 µM
CCRF-CEM leukemia
  TGI: > 100 µM
MALME-3M melanoma
  TGI: > 100 µM
HOP-92 NSCLC
  TGI: > 100 µM
DU-145 prostate
  TGI: > 100 µM
CAKI-1 renal
  TGI: > 100 µM
TK-10 renal
  TGI: > 100 µM
NCI-H226 lung
  TGI: > 100 µM
OVCAR-5 ovarian
  TGI: > 100 µM
BT-549 breast
  TGI: > 100 µM

## COc1ccc(N2C(=O)CC(=O)N(C(=O)COc3ccc(OCC(=O)N4C(=O)CC(=O)N(c5ccc(OC)cc5)C4=S)cc3)C2=S)cc1
K-562 leukemia
  TGI: > 100 µM
MALME-3M melanoma
  TGI: > 100 µM
HOP-92 NSCLC
  TGI: > 100 µM
DU-145 prostate
  TGI: > 100 µM
CAKI-1 renal
  TGI: 30.3 µM
TK-10 renal
  TGI: > 100 µM
NCI-H226 lung
  TGI: > 100 µM
OVCAR-5 ovarian
  TGI: > 100 µM
BT-549 breast
  TGI: > 100 µM

## COc1cc([C@@H]2c3cc4c(cc3[C@@H](c3c(O)cc(O)c5c3O[C@H](c3ccc(O)c(O)c3)[C@@H](O)C5)[C@H]3COC(=O)[C@H]23)OCO4)cc(OC)c1OC
K-562 leukemia
  TGI: 78.5 µM
CCRF-CEM leukemia
  TGI: > 100 µM
MALME-3M melanoma
  TGI: > 100 µM
HOP-92 NSCLC
  TGI: > 100 µM
DU-145 prostate
  TGI: 3.22 µM
CAKI-1 renal
  TGI: 3.57 µM
TK-10 renal
  TGI: 3.53 µM
OVCAR-5 ovarian
  TGI: 69.7 µM
BT-549 breast
  TGI: > 100 µM

## Cc1ccc(OCC2OC(n3cnc4c(Cl)nc(N)nc43)CC2Oc2ccc(C)cc2)cc1 (stereo not drawn)
K-562 leukemia
  TGI: > 100 µM
CCRF-CEM leukemia
  TGI: > 100 µM
MALME-3M melanoma
  TGI: > 85.3 µM
HOP-92 NSCLC
  TGI: 51.7 µM
DU-145 prostate
  TGI: > 100 µM
CAKI-1 renal
  TGI: 20.3 µM
TK-10 renal
  TGI: > 100 µM
NCI-H226 lung
  TGI: > 100 µM
OVCAR-5 ovarian
  TGI: > 100 µM
BT-549 breast
  TGI: > 100 µM

## COc1cccc(CCN2CCN(CCCc3ccccc3)CC2)c1
K-562 leukemia
  TGI: > 100 µM
CCRF-CEM leukemia
  TGI: > 100 µM
MALME-3M melanoma
  TGI: > 100 µM
HOP-92 NSCLC
  TGI: 64.4 µM
DU-145 prostate
  TGI: > 100 µM
CAKI-1 renal
  TGI: > 100 µM
TK-10 renal
  TGI: > 100 µM
NCI-H226 lung
  TGI: > 100 µM
OVCAR-5 ovarian
  TGI: > 100 µM
BT-549 breast
  TGI: > 100 µM

## Cc1csc(NC23CC4CC(CC(C4)C2)C3)[n+]1C(P(=O)([O-])O)P(=O)(O)O (stereo not drawn)
K-562 leukemia
  TGI: > 100 µM
CCRF-CEM leukemia
  TGI: > 100 µM
MALME-3M melanoma
  TGI: > 100 µM
HOP-92 NSCLC
  TGI: > 100 µM
DU-145 prostate
  TGI: > 100 µM
CAKI-1 renal
  TGI: > 100 µM
TK-10 renal
  TGI: > 100 µM
NCI-H226 lung
  TGI: > 100 µM
OVCAR-5 ovarian
  TGI: > 100 µM
BT-549 breast
  TGI: > 100 µM

## COC(=O)c1cc(=O)[nH]c(=O)[nH]1
K-562 leukemia
  TGI: > 100 µM
MALME-3M melanoma
  TGI: > 100 µM
HOP-92 NSCLC
  TGI: > 100 µM
DU-145 prostate
  TGI: > 100 µM
CAKI-1 renal
  TGI: > 100 µM
TK-10 renal
  TGI: > 100 µM
NCI-H226 lung
  TGI: > 100 µM
OVCAR-5 ovarian
  TGI: > 100 µM
BT-549 breast
  TGI: > 100 µM

## CN(C)c1ccc(/C(F)=C(F)/C(F)=C(F)/C(F)=C(\F)c2ccc(Br)cc2)cc1
K-562 leukemia
  TGI: > 100 µM
CCRF-CEM leukemia
  TGI: > 78.8 µM
MALME-3M melanoma
  TGI: > 71.8 µM
HOP-92 NSCLC
  TGI: > 100 µM
DU-145 prostate
  TGI: > 63.7 µM
CAKI-1 renal
  TGI: > 84 µM
TK-10 renal
  TGI: > 100 µM
NCI-H226 lung
  TGI: > 100 µM
OVCAR-5 ovarian
  TGI: > 100 µM
BT-549 breast
  TGI: > 100 µM

## Cc1cc(-c2nc3cc(F)ccc3s2)ccc1NC(=O)[C@@H](N)CCCCN
K-562 leukemia
  TGI: 5.21 µM
MALME-3M melanoma
  TGI: 33.2 µM
HOP-92 NSCLC
  TGI: 30.3 µM
DU-145 prostate
  TGI: 28.4 µM
CAKI-1 renal
  TGI: 20.3 µM
TK-10 renal
  TGI: 0.903 µM
NCI-H226 lung
  TGI: 18.1 µM
OVCAR-5 ovarian
  TGI: 17 µM
BT-549 breast
  TGI: 26.9 µM

## OCC(O)C(O)C(O)C(O)c1nc2ccc(Cl)cc2[nH]1 (stereo not drawn)
K-562 leukemia
  TGI: > 100 µM
CCRF-CEM leukemia
  TGI: > 100 µM
MALME-3M melanoma
  TGI: > 100 µM
HOP-92 NSCLC
  TGI: > 100 µM
DU-145 prostate
  TGI: > 100 µM
CAKI-1 renal
  TGI: > 100 µM
TK-10 renal
  TGI: > 100 µM
NCI-H226 lung
  TGI: > 100 µM
OVCAR-5 ovarian
  TGI: > 100 µM
BT-549 breast
  TGI: > 100 µM

## CC(NC(=O)C(NC(=O)CNC(=O)OC(C)(C)C)C(C)C)C(=O)Oc1c(Cl)c(Cl)c(Cl)c(Cl)c1Cl (stereo not drawn)
K-562 leukemia
  TGI: > 100 µM
CCRF-CEM leukemia
  TGI: > 100 µM
MALME-3M melanoma
  TGI: 49.4 µM
HOP-92 NSCLC
  TGI: 41.3 µM
DU-145 prostate
  TGI: 49.3 µM
CAKI-1 renal
  TGI: 39.3 µM
TK-10 renal
  TGI: 77.2 µM
NCI-H226 lung
  TGI: 52.6 µM
OVCAR-5 ovarian
  TGI: 31.6 µM
BT-549 breast
  TGI: 51.2 µM

## CC(C)CNc1nc2ncnc(N)c2[nH]1
K-562 leukemia
  TGI: > 100 µM
CCRF-CEM leukemia
  TGI: > 100 µM
MALME-3M melanoma
  TGI: > 100 µM
HOP-92 NSCLC
  TGI: > 100 µM
DU-145 prostate
  TGI: > 100 µM
CAKI-1 renal
  TGI: > 100 µM
TK-10 renal
  TGI: > 100 µM
NCI-H226 lung
  TGI: > 100 µM
OVCAR-5 ovarian
  TGI: > 100 µM
BT-549 breast
  TGI: > 100 µM

## COc1ccc2c3c1OC1C(=O)C=CC4(CC2)N(C)CCC314 (stereo not drawn)
K-562 leukemia
  TGI: > 100 µM
CCRF-CEM leukemia
  TGI: 51.5 µM
MALME-3M melanoma
  TGI: > 100 µM
HOP-92 NSCLC
  TGI: > 100 µM
DU-145 prostate
  TGI: > 100 µM
CAKI-1 renal
  TGI: > 100 µM
TK-10 renal
  TGI: > 100 µM
OVCAR-5 ovarian
  TGI: 92.4 µM
BT-549 breast
  TGI: 90.8 µM
